From ChEMBL document CHEMBL4418261, “Pyripyropene derivatives having acat2 inhibiting activity and stable to metabolizing enzymes” (2017)

How the values were obtained:
[1] = Half life in Sprague-Dawley rat hepatic microsomes at 6 ug/ml by LC-MS method; type: ADME, Microsome; conditions: liver microsomes
[2] = target: T1, Sterol O-acyltransferase 2 (Mus musculus) (UniProt O88908); test: Potency index, ratio of PRD-043 IC50 to test compound IC50 for inhibition ACAT2 in mouse hepatic microsome membranes using [1-14C]oleoyl coenzyme A as substrate incubated for 5 mins; type: microsomes
T1 sequence (whole entry): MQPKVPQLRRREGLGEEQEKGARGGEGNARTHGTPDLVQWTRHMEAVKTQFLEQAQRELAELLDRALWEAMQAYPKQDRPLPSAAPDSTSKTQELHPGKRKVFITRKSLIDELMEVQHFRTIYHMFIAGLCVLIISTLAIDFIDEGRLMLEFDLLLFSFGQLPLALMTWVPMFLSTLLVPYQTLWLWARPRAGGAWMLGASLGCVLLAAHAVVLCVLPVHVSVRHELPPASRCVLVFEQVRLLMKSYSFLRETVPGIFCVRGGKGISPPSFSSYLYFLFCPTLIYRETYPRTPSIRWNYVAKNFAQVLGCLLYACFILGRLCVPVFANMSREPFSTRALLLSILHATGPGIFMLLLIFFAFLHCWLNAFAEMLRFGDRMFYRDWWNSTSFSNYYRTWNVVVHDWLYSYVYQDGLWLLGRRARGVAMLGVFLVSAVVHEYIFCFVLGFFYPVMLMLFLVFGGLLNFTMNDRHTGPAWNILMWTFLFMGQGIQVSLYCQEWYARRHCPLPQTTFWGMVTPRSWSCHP

Row | half-life at 6 ug/ml [1] | Ratio IC50 [2] | Compound
1 | < 1 h |  | CCc1ccc(C(=O)O[C@H]2C[C@H]3[C@](C)(COC(C)=O)[C@@H](OC(C)=O)CC[C@]3(C)[C@H]3[C@@H](O)c4c(cc(-c5cccnc5)oc4=O)O[C@]23C)cc1
2 | > 9 h | 10 to 20 | C[C@]1(COC(=O)c2ccccc2)[C@@H]2C[C@H](OC(=O)c3ccc(C#N)cc3)[C@@]3(C)Oc4cc(-c5cccnc5)oc(=O)c4[C@H](O)[C@@H]3[C@@]2(C)CC[C@@H]1OC(=O)c1ccccc1
3 | > 9 h | 1 | COc1cccc(C(=O)O[C@H]2C[C@H]3[C@](C)(COC(C)=O)[C@@H](OC(C)=O)CC[C@]3(C)[C@H]3[C@@H](O)c4c(cc(-c5cccnc5)oc4=O)O[C@]23C)c1
4 | > 9 h | 10 to 20 | CC(=O)O[C@H]1CC[C@@]2(C)[C@@H](C[C@H](OC(=O)c3ccc(C#N)cc3)[C@@]3(C)Oc4cc(-c5cccnc5)oc(=O)c4[C@H](O)[C@H]23)[C@]1(C)COC(=O)C(C)C
5 | > 9 h | 10 to 20 | C[C@@]12CO[C@@H](c3ccccc3)O[C@H]1CC[C@@]1(C)[C@H]2C[C@H](OC(=O)c2ccccc2)[C@@]2(C)Oc3cc(-c4cccnc4)oc(=O)c3[C@H](O)[C@H]12
6 | > 9 h | 10 to 20 | Cc1ccc([C@@H]2OC[C@@]3(C)[C@@H]4C[C@H](OC(=O)c5ccc(C#N)cc5)[C@@]5(C)Oc6cc(-c7cccnc7)oc(=O)c6[C@H](O)[C@@H]5[C@@]4(C)CC[C@@H]3O2)c(C)c1
7 | < 1 h |  | CC(=O)OC[C@@]1(C)[C@@H]2C[C@H](OC(=O)c3ccccc3C)[C@@]3(C)Oc4cc(-c5cccnc5)oc(=O)c4[C@H](O)[C@@H]3[C@@]2(C)CC[C@@H]1OC(C)=O
8 | > 9 h | 10 to 20 | Cc1ccc([C@@H]2OC[C@@]3(C)[C@@H]4C[C@H](OC(=O)c5ccc(F)cc5)[C@@]5(C)Oc6cc(-c7cccnc7)oc(=O)c6[C@H](O)[C@@H]5[C@@]4(C)CC[C@@H]3O2)c(C)c1
9 | > 9 h | 0.1 to 1 | CC(C)C(=O)OC[C@@]1(C)[C@@H]2C[C@H](OC(=O)c3ccc(C#N)cc3)[C@@]3(C)Oc4cc(-c5cccnc5)oc(=O)c4[C@H](O)[C@@H]3[C@@]2(C)CC[C@@H]1OC(=O)C(C)C
10 | > 9 h | 10 to 20 | CC(C)C(=O)OC[C@@]1(C)[C@@H]2C[C@H](OC(=O)C3CCCCC3)[C@@]3(C)Oc4cc(-c5cccnc5)oc(=O)c4[C@H](O)[C@@H]3[C@@]2(C)CC[C@@H]1OC(=O)C(C)C
11 | > 9 h | 10 to 20 | Cc1cccc([C@@H]2OC[C@@]3(C)[C@@H]4C[C@H](OC(=O)c5ccc(F)cc5)[C@@]5(C)Oc6cc(-c7cccnc7)oc(=O)c6[C@H](O)[C@@H]5[C@@]4(C)CC[C@@H]3O2)c1
12 | < 1 h |  | CC(=O)OC[C@@]1(C)[C@@H]2C[C@H](OC(=O)c3ccccc3F)[C@@]3(C)Oc4cc(-c5cccnc5)oc(=O)c4[C@H](O)[C@@H]3[C@@]2(C)CC[C@@H]1OC(C)=O
13 | > 9 h | 10 to 20 | CC(=O)O[C@H]1C[C@H]2[C@]3(C)CO[C@@H](c4ccccc4)O[C@H]3CC[C@]2(C)[C@H]2[C@@H](O)c3c(cc(-c4cccnc4)oc3=O)O[C@]12C
14 | > 9 h | 10 to 20 | COc1ccccc1[C@@H]1OC[C@@]2(C)[C@@H]3C[C@H](OC(=O)c4ccc(C#N)cc4)[C@@]4(C)Oc5cc(-c6cccnc6)oc(=O)c5[C@H](O)[C@@H]4[C@@]3(C)CC[C@@H]2O1
15 | > 9 h | 10 to 20 | CC(=O)O[C@H]1C[C@H]2[C@](C)(COC(=O)C(C)C)[C@@H](OC(=O)C(C)C)CC[C@]2(C)[C@H]2[C@@H](O)c3c(cc(-c4cccnc4)oc3=O)O[C@]12C
16 | > 9 h | 10 to 20 | CC(=O)O[C@H]1CC[C@@]2(C)[C@@H](C[C@H](OC(C)=O)[C@@]3(C)Oc4cc(-c5cccnc5)oc(=O)c4[C@H](O)[C@H]23)[C@]1(C)COC(=O)c1ccccc1
17 | > 9 h | 10 to 20 | Cc1cccc(C)c1[C@@H]1OC[C@@]2(C)[C@@H]3C[C@H](OC(=O)c4ccc(C#N)cc4)[C@@]4(C)Oc5cc(-c6cccnc6)oc(=O)c5[C@H](O)[C@@H]4[C@@]3(C)CC[C@@H]2O1
18 | < 1 h |  | CC(=O)OC[C@@]1(C)[C@@H]2C[C@H](OC(=O)c3ccc(C)cc3)[C@@]3(C)Oc4cc(-c5cccnc5)oc(=O)c4[C@H](O)[C@@H]3[C@@]2(C)CC[C@@H]1OC(C)=O

Row | half-life at 6 ug/ml [1] | Ratio IC50 [2] | Compound
19 | > 9 h | 10 to 20 | C[C@@]12CO[C@@H](c3ccccc3F)O[C@H]1CC[C@@]1(C)[C@H]2C[C@H](OC(=O)c2ccc(C#N)cc2)[C@@]2(C)Oc3cc(-c4cccnc4)oc(=O)c3[C@H](O)[C@H]12
20 | > 9 h | 10 to 20 | CC(=O)OC[C@@]1(C)[C@@H]2C[C@H](OC(=O)c3ccc(C#N)cc3)[C@@]3(C)Oc4cc(-c5cccnc5)oc(=O)c4[C@H](O)[C@@H]3[C@@]2(C)CC[C@@H]1OC(=O)c1ccccc1
21 | > 9 h | 10 to 20 | C[C@@]12CO[C@@H](c3ccccc3F)O[C@H]1CC[C@@]1(C)[C@H]2C[C@H](OC(=O)c2ccc(F)cc2)[C@@]2(C)Oc3cc(-c4cccnc4)oc(=O)c3[C@H](O)[C@H]12
22 | > 9 h | 10 to 20 | Cc1ccccc1[C@@H]1OC[C@@]2(C)[C@@H]3C[C@H](OC(=O)c4ccc(F)cc4)[C@@]4(C)Oc5cc(-c6cccnc6)oc(=O)c5[C@H](O)[C@@H]4[C@@]3(C)CC[C@@H]2O1
23 | > 9 h | < 20 | CC(=O)OC[C@@]1(C)[C@@H]2C[C@H](OC(=O)c3ccc(C#N)cc3)[C@@]3(C)Oc4cc(-c5cccnc5)oc(=O)c4[C@H](O)[C@@H]3[C@@]2(C)CC[C@@H]1OC(=O)C(C)C
24 | > 9 h | < 20 | Cc1ccc([C@@H]2OC[C@@]3(C)[C@@H]4C[C@H](OC(=O)c5ccc(F)cc5)[C@@]5(C)Oc6cc(-c7cccnc7)oc(=O)c6[C@H](O)[C@@H]5[C@@]4(C)CC[C@@H]3O2)cc1
25 | > 9 h | 10 to 20 | CC(=O)O[C@H]1CC[C@@]2(C)[C@@H](C[C@H](OC(=O)c3ccc(C#N)cc3)[C@@]3(C)Oc4cc(-c5cccnc5)oc(=O)c4[C@H](O)[C@H]23)[C@]1(C)COC(=O)c1ccccc1
26 | > 9 h | 10 to 20 | CC(C)C(=O)OC[C@@]1(C)[C@@H]2C[C@H](OC(=O)c3ccc([N+](=O)[O-])cc3)[C@@]3(C)Oc4cc(-c5cccnc5)oc(=O)c4[C@H](O)[C@@H]3[C@@]2(C)CC[C@@H]1OC(=O)C(C)C
27 | < 1 h |  | CC(=O)OC[C@@]1(C)[C@@H]2C[C@H](OC(=O)c3cccc(Br)c3)[C@@]3(C)Oc4cc(-c5cccnc5)oc(=O)c4[C@H](O)[C@@H]3[C@@]2(C)CC[C@@H]1OC(C)=O
28 | > 9 h | 10 to 20 | Cc1ccc([C@@H]2OC[C@@]3(C)[C@@H]4C[C@H](OC(=O)c5ccc(C#N)cc5)[C@@]5(C)Oc6cc(-c7cccnc7)oc(=O)c6[C@H](O)[C@@H]5[C@@]4(C)CC[C@@H]3O2)cc1
29 | > 9 h | 10 to 20 | COc1ccc(C(OC)O[C@H]2C[C@H]3[C@]4(C)CO[C@@H](c5ccccc5)O[C@H]4CC[C@]3(C)[C@H]3[C@@H](O)c4c(cc(-c5cccnc5)oc4=O)O[C@]23C)cc1 (some centres not stated)
30 | > 9 h | 10 to 20 | C[C@@]12CO[C@@H](c3cccc4ccccc34)O[C@H]1CC[C@@]1(C)[C@H]2C[C@H](OC(=O)c2ccc(C#N)cc2)[C@@]2(C)Oc3cc(-c4cccnc4)oc(=O)c3[C@H](O)[C@H]12
31 | > 9 h | 10 to 20 | COc1ccccc1[C@@H]1OC[C@@]2(C)[C@@H]3C[C@H](OC(=O)c4ccc(F)cc4)[C@@]4(C)Oc5cc(-c6cccnc6)oc(=O)c5[C@H](O)[C@@H]4[C@@]3(C)CC[C@@H]2O1
32 | > 9 h | 10 to 20 | CCCCCC(=O)OC[C@@]1(C)[C@@H]2C[C@H](OC(=O)c3ccc(C#N)cc3)[C@@]3(C)Oc4cc(-c5cccnc5)oc(=O)c4[C@H](O)[C@@H]3[C@@]2(C)CC[C@@H]1OC(=O)CCCCC
33 | > 9 h | < 20 | CN(C)c1ccc([C@@H]2OC[C@@]3(C)[C@@H]4C[C@H](OC(=O)c5ccc(C#N)cc5)[C@@]5(C)Oc6cc(-c7cccnc7)oc(=O)c6[C@H](O)[C@@H]5[C@@]4(C)CC[C@@H]3O2)cc1
34 | > 9 h | < 20 | Cc1cccc([C@@H]2OC[C@@]3(C)[C@@H]4C[C@H](OC(=O)c5ccc(C#N)cc5)[C@@]5(C)Oc6cc(-c7cccnc7)oc(=O)c6[C@H](O)[C@@H]5[C@@]4(C)CC[C@@H]3O2)c1
35 | > 9 h | 10 to 20 | C[C@@]12CO[C@@H](c3ccccc3)O[C@H]1CC[C@@]1(C)[C@H]2C[C@H](OC(=O)C2CCCCC2)[C@@]2(C)Oc3cc(-c4cccnc4)oc(=O)c3[C@H](O)[C@H]12
36 | < 1 h |  | CC(=O)OC[C@@]1(C)[C@@H]2C[C@H](OC(C)=O)[C@@]3(C)Oc4cc(-c5cccnc5)oc(=O)c4[C@H](O)[C@@H]3[C@@]2(C)CC[C@@H]1OC(C)=O

Row | Compound | half-life at 6 ug/ml [1] | Ratio IC50 [2]
37 | CC(=O)OC[C@@]1(C)[C@@H]2C[C@H](OC(=O)C3CCCCC3)[C@@]3(C)Oc4cc(-c5cccnc5)oc(=O)c4[C@H](O)[C@@H]3[C@@]2(C)CC[C@@H]1OC(C)=O | < 1 h | 
